Format in all cases: physicochemical
A short description of data set [1]: Variable temperature XRPD of Form A. The protocol:
The sample was placed in Anton-Paar TTK 450 chamber at 25° C. The temperature was controlled in-situ through the measurement files: p2853-vt, LRP-1301-39-01.dql, LRP-1301-42-01.dql, LRP-1301-42-02.dql. The sample was heated from 25° C. to 200° C. at 1° C./min. XRPD data were collected from 30° C. to 200° C. every 10° C. Approximately 40 mg of the sample was placed in a Ni-coated sample holder under ambient conditions. The sample was loaded at 25° C.
At 200° C., changes (shifts) in peak position in the high 2-theta region were observed. This may be attributed to the thermal expansion effect.

A short description of data set [2]: Final polymorph after holding in different solvents at different temperatures. On the procedure:
Thus, preferably the solution of 3-[5-amino-4-(3-cyanobenzoyl)-pyrazol-1-yl]-N-cyclopropyl-4-methylbenzamide is not exposed to temperatures of greater than 70° C. for more than 24 hours, preferably not more than 12 hours, preferably not more than 6 hours.
Thus, it can be seen that at the higher temperatures of 70 and 80° C., conversion to Form B is effected, or a mixture of Form A and Form B are produced, particularly over longer periods of time. It can also be seen that the hydrate is formed when water is included in the solvent.

Data set [3] can be described thus: Hygroscopicity (statement, method not given).

Consider `Cc1ccc(C(=O)NC2CC2)cc1-n1ncc(C(=O)c2cccc(C#N)c2)c1N` [Form B, 3-[5-amino-4-(3-cyanobenzoyl)-pyrazol-1-yl]-N-cyclopropyl-4-methylbenzamide], for which, in data set [1] (after heating to 200° C.), the “Solid form by XRPD after cooling to room temperature” value is listed as “remained unchanged”.

As for `Cc1ccc(C(=O)NC2CC2)cc1-n1ncc(C(=O)c2cccc(C#N)c2)c1N` [3-[5-amino-4-(3-cyanobenzoyl)-pyrazol-1-yl]-N-cyclopropyl-4-methylbenzamide], the Final polymorph result in data set [2] (60° C., DMAC/H2O = 1/1, 1 day) is “hydrate”; in data set [2] (60° C., H2O, 1 day) it was “hydrate”; in data set [2] (70° C., EtOH, 3 days), “A + B”; in data set [2] (70° C., n-PrOH, 3 days) it was “A + B”.

For `Cc1ccc(C(=O)NC2CC2)cc1-n1ncc(C(=O)c2cccc(C#N)c2)c1N` [Form A, 3-[5-amino-4-(3-cyanobenzoyl)-pyrazol-1-yl]-N-cyclopropyl-4-methylbenzamide], the “Temperature above which Form A converted to Form B on heating” value in data set [1] (variable temperature XRPD, heated from 25° C. to 200° C. at 1° C./min) is “above 100 °C”. Besides, the Hygroscopicity entry in data set [3] was “non-hygroscopic”.

The record behind these values is patent US11434204B2, “Method for producing a polymorphic form of 3-[5-amino-4-(3-cyanobenzoyl)-pyrazol-1-yl]-N-cyclopropyl-4-methylbenzamide” (MEREO BIOPHARMA 1 LIMITED, priority 2016, dated 2022).
